Measured values reported in ChEMBL document CHEMBL5723586, “Data for DCP probe BI-1915” (2024).
The source made the active and inactive calls. The calls are words filed in the database; no cut-off is given here.

Tests used:
[1] = molecular target: Endothelin-1 receptor (Homo sapiens) (UniProt P25101); assay: ETA Eurofins-Cerep binding assay; set-up: ligand concentration 0.03 nM; conditions: Compound concentration 10.0 uM
[2] = molecular target: Tyrosine-protein kinase Lck (Homo sapiens) (UniProt P06239); assay: Inhibitor of LCK_CE in the Eurofins Cerep SafetyScreen44 (BI) by lanthanide chelation excitation (Cerep_2906); conditions: Compound concentration 10.0 uM
[3] = molecular target: D(1A) dopamine receptor (Homo sapiens) (UniProt P21728); assay: D1 Eurofins-Cerep binding assay; set-up: ligand concentration 0.3 nM; conditions: Compound concentration 10.0 uM
[4] = molecular target: Muscarinic acetylcholine receptor M1 (Homo sapiens) (UniProt P11229); assay: M1 Eurofins-Cerep binding assay; set-up: ligand concentration 2 nM; conditions: Compound concentration 10.0 uM
[5] = molecular target: Prostaglandin G/H synthase 2 (Homo sapiens) (UniProt P35354); assay: Inhibitor of COX-2 in the Eurofins Cerep SafetyScreen44 (BI) by Fluorimetry (Cerep_4186); conditions: Compound concentration 10.0 uM
[6] = molecular target: Delta-type opioid receptor (Homo sapiens) (UniProt P41143); assay: delta (DOP) Eurofins-Cerep binding assay; set-up: ligand concentration 0.5 nM; conditions: Compound concentration 10.0 uM
[7] = molecular target: 5-hydroxytryptamine receptor 2B (Homo sapiens) (UniProt P41595); assay: 5-HT2B Eurofins-Cerep binding assay; conditions: Compound concentration 10.0 uM
[8] = molecular target: Sodium-dependent noradrenaline transporter (Homo sapiens) (UniProt P23975); assay: norepinephrine transporter Eurofins-Cerep binding assay; set-up: ligand concentration 1 nM; conditions: Compound concentration 10.0 uM
[9] = molecular target: 5-hydroxytryptamine receptor 2A (Homo sapiens) (UniProt P28223); assay: Agonist activity in the Eurofins Cerep SafetyScreen44 (BI) against 5HT2AH_AGON by Scintillation counting (Cerep_471); conditions: Compound concentration 10.0 uM
[10] = molecular target: Androgen receptor (Homo sapiens) (UniProt P10275); conditions: Compound concentration 10.0 uM
Description: Activity against ANDROGEN/H in the Eurofins Cerep SafetyScreen44 (BI) by Radioactive Assay (Cerep_933)

[11] = molecular target: Mu-type opioid receptor (Homo sapiens) (UniProt P35372); assay: mu (MOP) Eurofins-Cerep binding assay; set-up: ligand concentration 0.5 nM; conditions: Compound concentration 10.0 uM
[12] = molecular target: L-type calcium channel (dihydropyridine site), Cav1.2 alpha-1C (Rattus norvegicus, UniProt P22002); assay: Inhibitor of CA+/DHPSI/R in the Eurofins Cerep SafetyScreen44 (BI) by Radioactive Assay (Cerep_161); type: protein assay; set-up: scale not given: the % may be the effect or the level left; conditions: rat brain, probe [3H](+)PN200-110, compound concentration 10 uM, read-out: % Ctrl
[13] = molecular target: Cholecystokinin receptor type A (Homo sapiens) (UniProt P32238); assay: CCK1 (CCKA) Eurofins-Cerep binding assay; set-up: ligand concentration 0.08 nM; conditions: Compound concentration 10.0 uM
[14] = molecular target: 5-hydroxytryptamine receptor 3A (Homo sapiens) (UniProt P46098); assay: 5-HT3 Eurofins-Cerep binding assay; set-up: ligand concentration 0.5 nM; conditions: Compound concentration 10.0 uM
[15] = molecular target: Sodium-dependent serotonin transporter (Homo sapiens) (UniProt P31645); assay: 5-HT transporter Eurofins-Cerep binding assay; set-up: ligand concentration 2 nM; conditions: Compound concentration 10.0 uM
[16] = species on record: Rattus norvegicus; assay: Activity against BZD/CENTR/R in the Eurofins Cerep SafetyScreen44 (BI) by Radioactive Assay (Cerep_28); type: protein-complex assay; conditions: Compound concentration 10.0 uM
[17] = molecular target: hERG (KCNH2) (Homo sapiens, UniProt Q12809); assay: Inhibitor of HERG_DOFETILIDE in the Eurofins Cerep SafetyScreen44 (BI) by Scintillation counting (Cerep_4094); set-up: scale not given: the % may be the effect or the level left; conditions: probe [3H] Dofetilide, compound concentration 10 uM, read-out: % Ctrl
[18] = molecular target: Beta-1 adrenergic receptor (Homo sapiens) (UniProt P08588); assay: beta 1 Eurofins-Cerep binding assay; set-up: ligand concentration 0.3 nM; conditions: Compound concentration 10.0 uM
[19] = molecular target: Adenosine receptor A2a (Homo sapiens) (UniProt P29274); assay: A2A Eurofins-Cerep binding assay; set-up: ligand concentration 6 nM; conditions: Compound concentration 10.0 uM
[20] = molecular target: Vasopressin V1a receptor (Homo sapiens) (UniProt P37288); assay: V1a Eurofins-Cerep binding assay; set-up: ligand concentration 0.3 nM; conditions: Compound concentration 10.0 uM
[21] = molecular target: Prostaglandin G/H synthase 1 (Homo sapiens) (UniProt P23219); assay: Inhibitor of COX-1 in the Eurofins Cerep SafetyScreen44 (BI) by Fluorimetry (Cerep_4173); conditions: Compound concentration 10.0 uM
[22] = molecular target: D(2) dopamine receptor (Homo sapiens) (UniProt P14416); assay: Agonist activity in the Eurofins Cerep SafetyScreen44 (BI) against D2SH_AGON by Scintillation counting (Cerep_1322); conditions: Compound concentration 10.0 uM
[23] = molecular target: Histamine H1 receptor (Homo sapiens) (UniProt P35367); assay: H1 Eurofins-Cerep binding assay; set-up: ligand concentration 1 nM; conditions: Compound concentration 10.0 uM
[24] = molecular target: 5-hydroxytryptamine receptor 1B (Homo sapiens) (UniProt P28222); assay: 5-HT1B Eurofins-Cerep binding assay; set-up: ligand concentration 1 nM; conditions: Compound concentration 10.0 uM
[25] = species on record: Homo sapiens; assay: Agonist activity in the Eurofins Cerep SafetyScreen44 (BI) against N_NEURO_A4B2 by Radioligand Binding (Cerep_3029); type: protein-complex assay; conditions: Compound concentration 10.0 uM
[26] = species on record: Rattus norvegicus; assay: KV channel Eurofins-Cerep binding assay; set-up: ligand concentration 0.01 nM; conditions: Compound concentration 10.0 uM
[27] = molecular target: Alpha-1A adrenergic receptor (Homo sapiens) (UniProt P35348); assay: Agonist activity in the Eurofins Cerep SafetyScreen44 (BI) against ALPHA1AH_ANTAG by Scintillation counting (Cerep_2338); conditions: Compound concentration 10.0 uM
[28] = molecular target: Alpha-2A adrenergic receptor (Homo sapiens) (UniProt P08913); assay: Inhibitor of ALPHA2A/HU in the Eurofins Cerep SafetyScreen44 (BI) by Radioactive Assay (Cerep_13); conditions: Compound concentration 10.0 uM
[29] = molecular target: Cannabinoid receptor 1 (Homo sapiens) (UniProt P21554); assay: CB1 Eurofins-Cerep binding assay; conditions: Compound concentration 10.0 uM
[30] = molecular target: MAO-A (amine oxidase [flavin-containing] A) (Homo sapiens, UniProt P21397); assay: Agonist activity in the Eurofins Cerep SafetyScreen44 (BI) against MAO-A_ANTAG by Scintillation counting (Cerep_443); set-up: scale not given: the % may be the effect or the level left; conditions: rat; compound concentration 10 uM; target entry is the homologue from another species; read-out: % Ctrl
[31] = molecular target: Glutamate NMDA receptor (Rattus norvegicus) (UniProt P35439+Q00959+Q00960+Q00961+Q62645+Q8VHN2+Q9R1M7); assay: Inhibitor of NMDA/R in the Eurofins Cerep SafetyScreen44 (BI) by Radioactive Assay (Cerep_66); type: protein-complex assay; conditions: Compound concentration 10.0 uM
[32] = molecular target: Glucocorticoid receptor (Homo sapiens) (UniProt P04150); assay: GR Eurofins-Cerep binding assay; conditions: Compound concentration 10.0 uM
[33] = molecular target: Sodium-dependent dopamine transporter (Homo sapiens) (UniProt Q01959); assay: dopamine transporter Eurofins-Cerep binding assay; conditions: Compound concentration 10.0 uM
[34] = molecular target: Muscarinic acetylcholine receptor M2 (Homo sapiens) (UniProt P08172); assay: M2 Eurofins-Cerep binding assay; set-up: ligand concentration 2 nM; conditions: Compound concentration 10.0 uM
[35] = molecular target: cGMP-inhibited 3',5'-cyclic phosphodiesterase 3A (Homo sapiens) (UniProt Q14432); assay: Inhibitor of PDE3A in the Eurofins Cerep SafetyScreen44 (BI) by HTRF-homogeneous time resolved fluoresce (Cerep_4072); conditions: Compound concentration 10.0 uM
[36] = molecular target: Angiotensin-converting enzyme (Homo sapiens) (UniProt P12821); assay: Activity against ACE(HU_AMTCH400) in the Eurofins Cerep SafetyScreen44 (BI) by Photometry (Cerep_3441); conditions: Compound concentration 10.0 uM
[37] = molecular target: Histamine H2 receptor (Homo sapiens) (UniProt P25021); assay: H2 Eurofins-Cerep binding assay; set-up: ligand concentration 0.075 nM; conditions: Compound concentration 10.0 uM
[38] = molecular target: 5-hydroxytryptamine receptor 1A (Homo sapiens) (UniProt P08908); assay: 5-HT1A Eurofins-Cerep binding assay; set-up: ligand concentration 0.5 nM; conditions: Compound concentration 10.0 uM
[39] = molecular target: Muscarinic acetylcholine receptor M3 (Homo sapiens) (UniProt P20309); assay: M3 Eurofins-Cerep binding assay; set-up: ligand concentration 0.2 nM; conditions: Compound concentration 10.0 uM
[40] = molecular target: Kappa-type opioid receptor (Homo sapiens) (UniProt P41145); assay: kappa (KOP) Eurofins-Cerep binding assay; conditions: Compound concentration 10.0 uM
[41] = molecular target: Beta-2 adrenergic receptor (Homo sapiens) (UniProt P07550); assay: beta 2 Eurofins-Cerep binding assay; conditions: Compound concentration 10.0 uM
[42] = molecular target: 3',5'-cyclic-AMP phosphodiesterase 4D (Homo sapiens) (UniProt Q08499); assay: Inhibitor of PDE4D2 in the Eurofins Cerep SafetyScreen44 (BI) by Scintillation counting (Cerep_4077); conditions: Compound concentration 10.0 uM
[43] = molecular target: Cannabinoid receptor 2 (Homo sapiens) (UniProt P34972); assay: Activity against CB2/PERIPH/H in the Eurofins Cerep SafetyScreen44 (BI) by Radioactive Assay (Cerep_37); conditions: Compound concentration 10.0 uM
[44] = molecular target: Cathepsin B (Homo sapiens, UniProt P07858); assay: Luminescent based enzymatic assay (CTSB)
[45] = molecular target: Procathepsin L (Homo sapiens, UniProt P07711); assay: Luminescent based enzymatic assay (CTSL)
[46] = molecular target: Cathepsin S (Homo sapiens, UniProt P25774); assay: Scintillation proximity assay (CTSS)
[47] = molecular target: Cathepsin K (Homo sapiens, UniProt P43235); assay: Luminescent based enzymatic assay (CTSK)

Sequence of Alpha-1A adrenergic receptor (Homo sapiens) (P35348 whole entry): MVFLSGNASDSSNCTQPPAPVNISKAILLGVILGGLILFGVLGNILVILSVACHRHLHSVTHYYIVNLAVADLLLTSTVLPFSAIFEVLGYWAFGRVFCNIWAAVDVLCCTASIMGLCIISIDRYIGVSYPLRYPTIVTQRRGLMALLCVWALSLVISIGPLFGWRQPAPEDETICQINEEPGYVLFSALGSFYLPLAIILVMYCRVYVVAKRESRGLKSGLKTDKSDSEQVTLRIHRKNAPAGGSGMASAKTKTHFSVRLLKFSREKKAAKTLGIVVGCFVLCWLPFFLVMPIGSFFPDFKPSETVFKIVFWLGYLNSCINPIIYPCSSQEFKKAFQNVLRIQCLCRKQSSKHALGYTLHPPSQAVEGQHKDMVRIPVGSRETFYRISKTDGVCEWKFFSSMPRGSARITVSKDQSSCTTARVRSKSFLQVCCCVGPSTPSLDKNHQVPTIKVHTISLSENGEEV
Sequence of Beta-2 adrenergic receptor (Homo sapiens) (P07550 whole entry, looked up): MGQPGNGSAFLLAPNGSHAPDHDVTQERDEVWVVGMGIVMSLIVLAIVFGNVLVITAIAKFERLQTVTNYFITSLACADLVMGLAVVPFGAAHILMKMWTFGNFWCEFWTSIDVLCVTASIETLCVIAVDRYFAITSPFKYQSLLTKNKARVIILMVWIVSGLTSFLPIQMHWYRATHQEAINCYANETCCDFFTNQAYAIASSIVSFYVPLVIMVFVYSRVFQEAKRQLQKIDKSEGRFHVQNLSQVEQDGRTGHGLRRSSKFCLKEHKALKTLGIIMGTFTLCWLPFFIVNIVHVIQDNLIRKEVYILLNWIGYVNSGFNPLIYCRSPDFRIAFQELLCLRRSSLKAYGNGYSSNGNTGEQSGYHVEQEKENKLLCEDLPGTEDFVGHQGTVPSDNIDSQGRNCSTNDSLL
Sequence of Muscarinic acetylcholine receptor M3 (Homo sapiens) (P20309 whole entry, looked up): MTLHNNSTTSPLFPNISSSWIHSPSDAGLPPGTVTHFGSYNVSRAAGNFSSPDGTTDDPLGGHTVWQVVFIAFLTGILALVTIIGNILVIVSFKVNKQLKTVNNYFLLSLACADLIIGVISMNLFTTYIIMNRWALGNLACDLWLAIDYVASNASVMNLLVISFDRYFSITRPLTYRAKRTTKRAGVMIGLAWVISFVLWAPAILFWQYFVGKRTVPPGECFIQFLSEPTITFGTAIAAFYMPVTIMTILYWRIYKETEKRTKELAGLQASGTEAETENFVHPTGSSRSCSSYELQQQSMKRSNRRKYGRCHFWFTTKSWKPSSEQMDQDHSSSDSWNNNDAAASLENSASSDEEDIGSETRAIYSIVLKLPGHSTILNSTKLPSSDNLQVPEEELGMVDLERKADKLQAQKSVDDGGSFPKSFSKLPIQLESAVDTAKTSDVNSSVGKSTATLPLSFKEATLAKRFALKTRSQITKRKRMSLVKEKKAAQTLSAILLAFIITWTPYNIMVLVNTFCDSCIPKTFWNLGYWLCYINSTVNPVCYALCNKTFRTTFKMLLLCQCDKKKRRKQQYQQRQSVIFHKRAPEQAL
Sequence of Vasopressin V1a receptor (Homo sapiens) (P37288 whole entry, looked up): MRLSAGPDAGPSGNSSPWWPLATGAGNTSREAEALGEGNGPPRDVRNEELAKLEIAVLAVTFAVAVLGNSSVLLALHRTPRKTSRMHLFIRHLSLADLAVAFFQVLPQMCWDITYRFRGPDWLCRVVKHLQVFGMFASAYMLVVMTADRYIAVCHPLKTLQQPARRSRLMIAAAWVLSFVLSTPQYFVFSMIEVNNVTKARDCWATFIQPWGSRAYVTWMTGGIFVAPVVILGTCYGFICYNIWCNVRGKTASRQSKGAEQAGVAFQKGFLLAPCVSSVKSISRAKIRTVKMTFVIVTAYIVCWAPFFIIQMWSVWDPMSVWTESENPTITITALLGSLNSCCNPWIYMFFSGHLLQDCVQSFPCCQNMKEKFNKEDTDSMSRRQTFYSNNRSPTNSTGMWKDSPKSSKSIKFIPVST
Sequence of Glucocorticoid receptor (Homo sapiens) (P04150 whole entry): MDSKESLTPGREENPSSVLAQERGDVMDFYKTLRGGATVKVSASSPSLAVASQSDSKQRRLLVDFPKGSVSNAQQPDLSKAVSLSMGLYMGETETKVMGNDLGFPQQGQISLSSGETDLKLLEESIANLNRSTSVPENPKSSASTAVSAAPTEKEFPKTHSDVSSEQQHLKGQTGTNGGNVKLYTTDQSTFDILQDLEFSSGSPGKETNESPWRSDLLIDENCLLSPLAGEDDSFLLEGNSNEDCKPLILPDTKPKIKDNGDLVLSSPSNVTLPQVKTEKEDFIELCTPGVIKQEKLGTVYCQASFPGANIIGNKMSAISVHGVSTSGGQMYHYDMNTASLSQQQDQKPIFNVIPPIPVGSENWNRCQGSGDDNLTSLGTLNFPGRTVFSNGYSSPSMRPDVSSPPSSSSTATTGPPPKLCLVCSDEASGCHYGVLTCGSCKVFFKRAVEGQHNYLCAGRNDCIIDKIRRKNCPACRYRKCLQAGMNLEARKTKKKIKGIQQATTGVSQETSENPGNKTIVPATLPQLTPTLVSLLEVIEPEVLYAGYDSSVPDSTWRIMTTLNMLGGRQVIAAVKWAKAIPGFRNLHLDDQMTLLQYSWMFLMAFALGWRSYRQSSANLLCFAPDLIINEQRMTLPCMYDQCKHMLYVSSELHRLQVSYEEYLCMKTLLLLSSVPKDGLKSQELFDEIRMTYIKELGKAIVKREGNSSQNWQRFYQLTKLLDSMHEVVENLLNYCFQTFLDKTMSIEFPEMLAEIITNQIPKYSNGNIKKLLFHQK
Sequence of D(1A) dopamine receptor (Homo sapiens) (P21728 whole entry): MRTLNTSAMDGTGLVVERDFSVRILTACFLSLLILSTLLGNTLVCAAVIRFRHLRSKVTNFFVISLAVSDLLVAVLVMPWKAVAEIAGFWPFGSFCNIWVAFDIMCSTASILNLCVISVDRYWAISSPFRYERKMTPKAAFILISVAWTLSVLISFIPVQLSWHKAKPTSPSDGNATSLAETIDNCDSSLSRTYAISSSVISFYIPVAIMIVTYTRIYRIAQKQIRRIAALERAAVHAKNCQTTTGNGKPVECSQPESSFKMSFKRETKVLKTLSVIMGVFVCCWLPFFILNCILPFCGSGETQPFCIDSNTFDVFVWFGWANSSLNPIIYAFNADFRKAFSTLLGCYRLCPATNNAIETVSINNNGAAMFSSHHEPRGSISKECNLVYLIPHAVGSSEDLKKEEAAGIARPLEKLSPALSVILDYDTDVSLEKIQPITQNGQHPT
Sequence of Sodium-dependent serotonin transporter (Homo sapiens) (P31645 whole entry, looked up): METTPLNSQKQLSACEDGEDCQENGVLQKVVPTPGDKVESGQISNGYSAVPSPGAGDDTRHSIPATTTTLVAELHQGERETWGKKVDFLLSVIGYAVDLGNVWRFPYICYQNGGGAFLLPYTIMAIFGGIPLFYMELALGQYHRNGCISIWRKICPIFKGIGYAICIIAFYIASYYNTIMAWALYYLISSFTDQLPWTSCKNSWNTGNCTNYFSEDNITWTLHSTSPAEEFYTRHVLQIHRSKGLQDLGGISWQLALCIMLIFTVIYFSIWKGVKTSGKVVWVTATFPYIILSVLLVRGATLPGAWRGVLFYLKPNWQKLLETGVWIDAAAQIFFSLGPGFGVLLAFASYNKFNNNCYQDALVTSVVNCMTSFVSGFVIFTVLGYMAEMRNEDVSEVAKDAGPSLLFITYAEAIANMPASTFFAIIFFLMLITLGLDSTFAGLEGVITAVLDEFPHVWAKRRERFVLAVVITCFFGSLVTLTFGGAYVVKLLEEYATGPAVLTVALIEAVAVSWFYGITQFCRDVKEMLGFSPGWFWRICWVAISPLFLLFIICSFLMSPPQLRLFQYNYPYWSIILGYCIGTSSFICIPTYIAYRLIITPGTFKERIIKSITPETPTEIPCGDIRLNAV
Sequence of 3',5'-cyclic-AMP phosphodiesterase 4D (Homo sapiens) (Q08499 whole entry): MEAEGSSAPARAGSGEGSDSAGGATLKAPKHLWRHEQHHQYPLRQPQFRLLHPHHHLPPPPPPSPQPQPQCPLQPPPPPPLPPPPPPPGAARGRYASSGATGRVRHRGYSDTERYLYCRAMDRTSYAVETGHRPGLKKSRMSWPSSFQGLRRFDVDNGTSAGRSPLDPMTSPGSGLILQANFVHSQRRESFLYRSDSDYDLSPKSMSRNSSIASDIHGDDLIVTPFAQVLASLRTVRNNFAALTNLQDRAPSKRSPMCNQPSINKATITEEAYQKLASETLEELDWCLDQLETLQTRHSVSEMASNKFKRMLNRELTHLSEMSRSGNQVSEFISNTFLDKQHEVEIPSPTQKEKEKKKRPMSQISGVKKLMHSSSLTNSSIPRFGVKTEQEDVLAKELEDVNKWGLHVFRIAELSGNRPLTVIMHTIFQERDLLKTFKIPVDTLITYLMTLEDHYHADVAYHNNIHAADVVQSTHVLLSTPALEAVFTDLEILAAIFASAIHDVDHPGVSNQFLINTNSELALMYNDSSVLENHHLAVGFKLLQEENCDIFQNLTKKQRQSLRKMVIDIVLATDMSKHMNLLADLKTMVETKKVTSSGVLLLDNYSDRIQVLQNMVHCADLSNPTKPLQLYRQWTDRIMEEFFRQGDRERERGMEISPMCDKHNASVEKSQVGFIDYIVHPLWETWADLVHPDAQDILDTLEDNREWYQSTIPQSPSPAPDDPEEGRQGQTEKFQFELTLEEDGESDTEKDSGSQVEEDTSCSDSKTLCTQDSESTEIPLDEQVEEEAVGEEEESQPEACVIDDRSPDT
Sequence of 5-hydroxytryptamine receptor 1B (Homo sapiens) (P28222 whole entry): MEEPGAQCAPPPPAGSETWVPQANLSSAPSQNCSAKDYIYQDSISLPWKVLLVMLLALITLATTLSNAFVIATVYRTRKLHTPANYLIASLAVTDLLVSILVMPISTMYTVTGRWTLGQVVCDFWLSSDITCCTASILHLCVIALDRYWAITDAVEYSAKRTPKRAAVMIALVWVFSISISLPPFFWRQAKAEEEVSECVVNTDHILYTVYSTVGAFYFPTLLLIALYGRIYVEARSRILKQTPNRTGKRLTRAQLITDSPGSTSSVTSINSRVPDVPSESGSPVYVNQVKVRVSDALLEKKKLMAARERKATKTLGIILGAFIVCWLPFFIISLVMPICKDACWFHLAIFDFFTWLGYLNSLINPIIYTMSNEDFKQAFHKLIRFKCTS

In the case of `CN1CCC(C#N)(NC(=O)[C@@H](NC(=O)N2CCOCC2)C(C)(C)C)CC1`, the residual activity [1] was 112%, the residual activity [2] was 99% and the residual activity [3] was 105%. It also gave a residual activity [4] of 108%, a residual activity [5] of 90% and a residual activity [6] of 106%. For the same compound, the residual activity [7] was 117%, the residual activity [8] was 120% and the residual activity [9] was 123%. For the same compound, the residual activity [10] was 110%, the residual activity [11] was 96% and the activity at 10 µM [12] was 115% (not active). It also gave a residual activity [13] of 96%, a residual activity [14] of 97% and a residual activity [15] of 106%. The residual activity [16] was 111%, the activity at 10 µM [17] was 98% (not active) and the residual activity [18] was 97%. It also gave a residual activity [19] of 87%, a residual activity [20] of 94% and a residual activity [21] of 108%. The residual activity [22] was 107%, the residual activity [23] was 106% and the residual activity [24] was 61%. It also gave a residual activity [25] of 98%, a residual activity [26] of 110% and a residual activity [27] of 104%. The residual activity [28] was 80%, the residual activity [29] was 112% and the activity at 10 µM [30] was 105% (not active). For the same compound, the residual activity [31] was 92%, the residual activity [32] was 105% and the residual activity [33] was 105%. The residual activity [34] was 125%, the residual activity [35] was 88% and the residual activity [36] was 105%. It also gave a residual activity [37] of 92%, a residual activity [38] of 97% and a residual activity [39] of 112%. It also gave a residual activity [40] of 96%, a residual activity [41] of 92% and a residual activity [42] of 105%. The residual activity [43] was 109%.
For `CCC(C)(C)CC[C@H](NC(=O)N1CCOCC1)C(=O)NC1(C#N)CCN(C)CC1`, the residual activity [1] was 106%, the residual activity [2] was 96.5% and the IC50 [44] was > 10 µM (not active). For the same compound, the residual activity [3] was 94%, the residual activity [4] was 105% and the residual activity [5] was 104%. For the same compound, the IC50 [45] was > 30 µM (not active), the residual activity [6] was 92.5% and the residual activity [7] was 118%. It also gave a residual activity [8] of 103%, a residual activity [9] of 104% and a residual activity [10] of 107%. The residual activity [11] was 81%, the activity at 10 µM [12] was 106% (not active) and the Kd [46] was 0.031 µM (active). It also gave a residual activity [13] of 88%, a residual activity [14] of 100% and a residual activity [15] of 106%. The residual activity [16] was 114%, the activity at 10 µM [17] was 100% (not active) and the residual activity [18] was 101%. It also gave a residual activity [19] of 102%, a residual activity [20] of 92.5% and a residual activity [21] of 112%. It also gave a residual activity [22] of 106%, a residual activity [23] of 101% and a residual activity [24] of 92.5%. For the same compound, the IC50 [47] was > 10 µM (not active), the residual activity [25] was 114% and the residual activity [26] was 109%. The residual activity [27] was 110%, the residual activity [28] was 97% and the residual activity [29] was 116%. For the same compound, the activity at 10 µM [30] was 108% (not active), the residual activity [31] was 106% and the residual activity [32] was 102%. For the same compound, the residual activity [33] was 98.5%, the residual activity [34] was 106% and the residual activity [35] was 103%. The residual activity [36] was 98.5%, the residual activity [37] was 106% and the residual activity [38] was 104%. The residual activity [39] was 106%, the residual activity [40] was 84.5% and the residual activity [41] was 103%. The residual activity [42] was 100% and the residual activity [43] was 106%.
